# In ChEMBL document CHEMBL1201862, “PubChem BioAssay data set” (2004):
# Activity calls are given as the source filed them.
# Tests used:
# [1] = biological target: Polyadenylate-binding protein 1 (Homo sapiens, UniProt P11940); assay: MLLE domain peptide-binding blockers, IC50 – biochemical, fluorescence polarization, FITC-PAM2 peptide, dose response (AID 602259); format: functional; conditions: read-out: IC50_Mean
# [2] = biological target: T1, Sentrin-specific protease 8 (Homo sapiens, UniProt Q96LD8); format: functional;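 note: luminescence read-out of SENP8 inhibition, dose-response confirmation following an ultra-high-throughput screen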
# T1 sequence (Q96LD8 whole entry): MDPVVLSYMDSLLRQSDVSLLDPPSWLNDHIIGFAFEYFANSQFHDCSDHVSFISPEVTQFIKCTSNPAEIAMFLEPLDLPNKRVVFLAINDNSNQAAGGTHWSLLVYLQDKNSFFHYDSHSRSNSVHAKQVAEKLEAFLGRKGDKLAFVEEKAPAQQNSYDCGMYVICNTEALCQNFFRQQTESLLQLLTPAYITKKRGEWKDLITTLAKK
# [3] = biological target: T1, Sentrin-specific protease 8; assay: inhibition of human SENP8 cleavage activity – biochemical, luminescence, SAR follow-up (AID 504501); format: functional
# [4] = biological target: Female germline-specific tumor suppressor gld-1 (Caenorhabditis elegans, UniProt Q17339); assay: blockers of GLD-1/TGE RNA complex formation – biochemical, fluorescence polarization, C. elegans, dose response (AID 2802);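 note: fluorescence polarization of labeled TGE RNA bound by purified gld-1 protein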
# [5] = biological target: T2, Caspase-3 (Homo sapiens, UniProt P42574); assay: SAR Analysis of small molecule inhibitors of Sentrin-specific proteases (SENPs) using a Caspase-3 Selectivity assay. [Related pubchem assays (depositor defined):AID2540, AID2599, AID434973, AID489001]; format: functional
# T2 sequence (P42574 whole entry): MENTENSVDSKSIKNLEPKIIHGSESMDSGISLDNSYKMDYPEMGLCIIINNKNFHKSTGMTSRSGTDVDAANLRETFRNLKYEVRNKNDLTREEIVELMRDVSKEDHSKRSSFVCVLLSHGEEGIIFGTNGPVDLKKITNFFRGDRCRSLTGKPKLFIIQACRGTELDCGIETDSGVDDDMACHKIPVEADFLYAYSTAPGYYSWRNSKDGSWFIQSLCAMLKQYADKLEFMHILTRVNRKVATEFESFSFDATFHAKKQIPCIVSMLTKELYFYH
# [6] = test system: BJ; assay: BJ-TERT-LT-ST fibroblast viability loss – cell-based, RAS-independent, luminescence, dose response (AID 1935); format: functional; conditions: Homo sapiens;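 note: BJ fibroblasts immortalized with TERT plus LT and ST oncogenes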
# [7] = biological target: Paired box protein Pax-8 (Homo sapiens, UniProt Q06710); assay: PAX8 transcriptional activity inhibition in RMG-I – RMG-I cells, luciferase, cherry-pick, dose response (AID 687027); format: functional, cell-based;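 note: luciferase reporter driven by Pax8 target thyroperoxidase promoter measured by SteadyGlo luminescence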
# [8] = test system: Vero; assay: viability of Vero cells under compound – cytotoxicity control for flavivirus capping enzyme inhibitors (AID 588742); format: functional; conditions: Chlorocebus sabaeus
# [9] = biological target: T3, Histone-lysine N-methyltransferase NSD2 (Homo sapiens, UniProt O96028); format: biochemical
# T3 sequence (O96028 whole entry): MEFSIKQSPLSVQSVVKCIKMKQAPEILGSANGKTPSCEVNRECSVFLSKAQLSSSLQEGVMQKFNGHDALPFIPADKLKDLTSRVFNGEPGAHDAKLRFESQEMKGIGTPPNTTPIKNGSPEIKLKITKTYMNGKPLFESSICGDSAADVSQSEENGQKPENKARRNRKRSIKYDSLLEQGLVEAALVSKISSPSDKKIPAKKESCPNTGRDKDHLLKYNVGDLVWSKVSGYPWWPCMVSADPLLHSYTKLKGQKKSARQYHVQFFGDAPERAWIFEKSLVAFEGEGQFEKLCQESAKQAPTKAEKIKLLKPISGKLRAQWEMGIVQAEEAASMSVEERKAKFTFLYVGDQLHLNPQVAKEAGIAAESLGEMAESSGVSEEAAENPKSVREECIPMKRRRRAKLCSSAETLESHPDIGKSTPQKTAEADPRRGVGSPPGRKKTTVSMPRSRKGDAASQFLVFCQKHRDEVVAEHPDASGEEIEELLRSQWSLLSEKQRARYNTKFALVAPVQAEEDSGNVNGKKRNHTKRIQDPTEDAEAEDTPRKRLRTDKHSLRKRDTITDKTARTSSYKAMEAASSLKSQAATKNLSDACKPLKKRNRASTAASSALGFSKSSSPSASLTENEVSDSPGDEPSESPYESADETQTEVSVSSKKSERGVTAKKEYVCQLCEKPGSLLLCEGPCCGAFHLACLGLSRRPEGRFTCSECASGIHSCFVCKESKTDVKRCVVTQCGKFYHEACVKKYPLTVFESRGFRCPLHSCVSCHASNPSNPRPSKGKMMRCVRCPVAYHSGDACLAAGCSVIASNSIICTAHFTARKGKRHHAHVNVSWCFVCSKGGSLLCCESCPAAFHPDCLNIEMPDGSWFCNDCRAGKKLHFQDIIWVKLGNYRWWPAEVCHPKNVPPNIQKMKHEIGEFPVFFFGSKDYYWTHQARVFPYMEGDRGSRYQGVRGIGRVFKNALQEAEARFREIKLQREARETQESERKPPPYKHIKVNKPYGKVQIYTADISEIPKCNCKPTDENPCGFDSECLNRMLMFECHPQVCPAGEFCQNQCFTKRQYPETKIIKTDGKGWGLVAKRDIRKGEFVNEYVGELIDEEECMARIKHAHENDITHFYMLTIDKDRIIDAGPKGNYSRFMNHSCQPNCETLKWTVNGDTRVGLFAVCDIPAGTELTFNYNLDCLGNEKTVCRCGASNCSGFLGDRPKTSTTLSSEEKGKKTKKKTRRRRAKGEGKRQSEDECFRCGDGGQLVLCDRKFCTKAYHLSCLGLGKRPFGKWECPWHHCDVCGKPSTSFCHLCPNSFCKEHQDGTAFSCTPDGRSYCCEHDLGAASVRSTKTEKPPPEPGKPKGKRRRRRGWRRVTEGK
# [10] = biological target: SUMO-activating enzyme (Homo sapiens, UniProt Q9UBT2); assay: blockers of SAE1/SAE2–UBC9 SUMO transfer – biochemical, HTRF, uHTS, primary screen (AID 2006); format: protein-complex assay
# Chain of SUMO-activating enzyme (Q9UBE0 whole entry): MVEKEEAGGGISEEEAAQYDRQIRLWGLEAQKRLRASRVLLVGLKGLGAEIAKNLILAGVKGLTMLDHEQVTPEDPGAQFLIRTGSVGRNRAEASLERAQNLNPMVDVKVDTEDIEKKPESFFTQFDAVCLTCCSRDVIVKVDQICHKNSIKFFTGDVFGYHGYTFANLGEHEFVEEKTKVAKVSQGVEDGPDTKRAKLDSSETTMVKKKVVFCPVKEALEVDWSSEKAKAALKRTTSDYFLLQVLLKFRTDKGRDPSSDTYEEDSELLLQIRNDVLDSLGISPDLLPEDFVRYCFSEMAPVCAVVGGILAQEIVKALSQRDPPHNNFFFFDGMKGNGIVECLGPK
# Chain of SUMO-activating enzyme (Q9UBT2 whole entry): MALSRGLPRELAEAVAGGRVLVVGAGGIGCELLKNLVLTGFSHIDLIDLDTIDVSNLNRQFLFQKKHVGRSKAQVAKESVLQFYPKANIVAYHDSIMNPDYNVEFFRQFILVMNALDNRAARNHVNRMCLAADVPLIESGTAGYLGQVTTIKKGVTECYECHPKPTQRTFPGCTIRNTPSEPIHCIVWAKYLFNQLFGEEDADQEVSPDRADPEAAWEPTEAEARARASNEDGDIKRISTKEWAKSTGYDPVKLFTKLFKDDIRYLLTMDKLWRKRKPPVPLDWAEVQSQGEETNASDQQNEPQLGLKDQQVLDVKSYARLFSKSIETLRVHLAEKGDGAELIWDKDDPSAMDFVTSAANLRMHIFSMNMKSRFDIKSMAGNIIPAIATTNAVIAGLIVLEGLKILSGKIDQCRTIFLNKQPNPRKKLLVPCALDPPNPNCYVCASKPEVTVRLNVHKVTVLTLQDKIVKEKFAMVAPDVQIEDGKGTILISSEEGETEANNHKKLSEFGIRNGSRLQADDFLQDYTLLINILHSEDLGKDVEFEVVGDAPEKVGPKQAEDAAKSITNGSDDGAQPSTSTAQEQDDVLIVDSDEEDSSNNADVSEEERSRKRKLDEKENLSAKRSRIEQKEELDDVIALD
# Chain of Paired box protein Pax-8 (Q06710 whole entry): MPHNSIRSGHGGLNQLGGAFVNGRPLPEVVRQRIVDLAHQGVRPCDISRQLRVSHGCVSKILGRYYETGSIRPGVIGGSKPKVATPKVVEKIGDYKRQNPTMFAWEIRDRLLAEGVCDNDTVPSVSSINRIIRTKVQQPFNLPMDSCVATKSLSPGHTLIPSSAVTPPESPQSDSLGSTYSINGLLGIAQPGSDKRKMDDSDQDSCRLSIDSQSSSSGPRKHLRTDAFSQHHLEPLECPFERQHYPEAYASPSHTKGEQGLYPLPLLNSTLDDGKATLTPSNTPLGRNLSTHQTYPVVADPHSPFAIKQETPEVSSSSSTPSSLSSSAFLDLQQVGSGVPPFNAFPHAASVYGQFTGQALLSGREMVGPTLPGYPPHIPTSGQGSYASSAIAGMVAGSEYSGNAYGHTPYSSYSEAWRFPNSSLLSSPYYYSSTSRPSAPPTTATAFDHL
# Chain of Female germline-specific tumor suppressor gld-1 (Q17339 whole entry): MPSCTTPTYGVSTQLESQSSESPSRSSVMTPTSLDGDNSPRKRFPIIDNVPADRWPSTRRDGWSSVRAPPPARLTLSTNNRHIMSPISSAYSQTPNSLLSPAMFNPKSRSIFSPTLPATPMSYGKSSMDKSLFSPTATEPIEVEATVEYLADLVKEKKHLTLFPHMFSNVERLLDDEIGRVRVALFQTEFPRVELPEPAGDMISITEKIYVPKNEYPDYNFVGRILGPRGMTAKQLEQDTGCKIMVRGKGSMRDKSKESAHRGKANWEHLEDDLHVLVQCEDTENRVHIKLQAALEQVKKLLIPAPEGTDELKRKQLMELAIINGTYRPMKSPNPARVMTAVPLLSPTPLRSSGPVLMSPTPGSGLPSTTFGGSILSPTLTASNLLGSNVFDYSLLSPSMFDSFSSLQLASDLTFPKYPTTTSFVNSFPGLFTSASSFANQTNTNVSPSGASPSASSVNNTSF
# Chain of Polyadenylate-binding protein 1 (P11940 whole entry, the tested form may be a part): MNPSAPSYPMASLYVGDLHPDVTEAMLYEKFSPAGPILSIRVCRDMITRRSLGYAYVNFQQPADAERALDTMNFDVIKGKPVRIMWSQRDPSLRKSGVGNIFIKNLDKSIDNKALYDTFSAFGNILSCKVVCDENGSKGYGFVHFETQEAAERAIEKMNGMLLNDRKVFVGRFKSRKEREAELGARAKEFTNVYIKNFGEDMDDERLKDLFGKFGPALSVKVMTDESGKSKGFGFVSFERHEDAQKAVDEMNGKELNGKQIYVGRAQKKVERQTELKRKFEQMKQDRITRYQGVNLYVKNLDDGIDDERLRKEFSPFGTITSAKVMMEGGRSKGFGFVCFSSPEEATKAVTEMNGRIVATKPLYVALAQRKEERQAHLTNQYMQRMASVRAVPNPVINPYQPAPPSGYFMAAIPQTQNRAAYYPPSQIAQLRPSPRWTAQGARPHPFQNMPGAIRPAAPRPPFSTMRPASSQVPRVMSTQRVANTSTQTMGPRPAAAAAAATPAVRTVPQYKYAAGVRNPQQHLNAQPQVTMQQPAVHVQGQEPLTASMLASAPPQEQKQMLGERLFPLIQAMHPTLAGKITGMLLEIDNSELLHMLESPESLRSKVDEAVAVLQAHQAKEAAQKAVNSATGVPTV
Compound,IC50 [1],IC50 [2],IC50 [3],IC50 [4],IC50 [5],EC50 [6],AC50 [7],CC50 [8],AC50 [9],IC50 [10]
Oc1ccc(/C=N/Nc2cc(N3CCCC3)nc(N3CCCC3)n2)cc1,34.4 µM (inactive),22.1 µM (active),> 99 µM (inactive),2.75 µM (active),> 99 µM (inactive),–,–,–,–,–
COc1ccc(S(=O)(=O)/N=C2\C=C(Nc3ccc(O)cc3)C(=O)c3ccccc32)cc1,–,–,–,–,–,2.93 µM (inconclusive),1.86 µM (active),–,–,–
COc1ccc(/C=N/Nc2cc(N3CCCC3)nc(N3CCCC3)n2)cc1,–,7.52 µM (active),–,–,–,–,–,24.7 µM (active),2.01 µM (active),2.31 µM (active)
